Data: ChEMBL document CHEMBL1156289, “Potent and selective inhibition of human cytochrome P450 3A4 by seco-pancratistatin structural analogs” (Bioorg Med Chem Lett, 2010)
Active and inactive are the calls of the source. The calls are words filed in the database; no cut-off is given here.

Key:
[1] = system: MCF7; experiment: Cytotoxicity against human MCF7 cells at 10 uM; format: functional, cell-based
[2] = target: T1, Cytochrome P450 3A4 (Homo sapiens, UniProt P08684); experiment: Inhibition of human recombinant CYP3A4 assessed as biotransformation of […] measured every minute for 15 mins by fluorescence intensity assay; format: ADME
T1 sequence (P08684 whole entry): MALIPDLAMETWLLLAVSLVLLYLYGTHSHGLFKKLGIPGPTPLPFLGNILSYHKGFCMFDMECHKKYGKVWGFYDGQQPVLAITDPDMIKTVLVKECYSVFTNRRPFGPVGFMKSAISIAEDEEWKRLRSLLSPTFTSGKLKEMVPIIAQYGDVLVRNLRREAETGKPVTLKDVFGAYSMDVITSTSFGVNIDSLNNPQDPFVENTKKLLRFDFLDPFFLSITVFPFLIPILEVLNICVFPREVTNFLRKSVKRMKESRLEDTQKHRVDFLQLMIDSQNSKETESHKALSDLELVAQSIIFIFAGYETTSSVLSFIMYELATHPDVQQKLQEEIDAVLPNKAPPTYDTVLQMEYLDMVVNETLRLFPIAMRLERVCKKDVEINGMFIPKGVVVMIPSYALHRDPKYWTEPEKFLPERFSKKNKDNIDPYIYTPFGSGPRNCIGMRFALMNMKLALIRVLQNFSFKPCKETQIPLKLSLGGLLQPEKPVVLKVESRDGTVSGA

[3] = target: T1, Cytochrome P450 3A4; experiment: Inhibition of human recombinant CYP3A4 assessed as biotransformation of […] at 10 uM measured every minute for 15 mins by fluorescence intensity assay; format: ADME

## O=C(NC[C@@H](c1ccc2c(c1)OCO2)[C@@H](O)[C@H](O)[C@@H](O)CO)c1ccccc1
[1]
  Activity: inactive

## COCO[C@@H]([C@@H]1OC(C)(C)O[C@H]1CO)[C@@H](CNC(=O)c1ccccc1)c1ccc2c(c1)OCO2
[1]
  Activity: inactive

## COCO[C@@H]([C@@H]1OC(C)(C)O[C@H]1CO[Si](C)(C)C(C)(C)C)[C@@H](CNC(=O)OC(C)(C)C)c1ccc2c(c1)OCO2
[1]
  Activity: inactive

## CC1(C)O[C@@H]([C@H](O)[C@@H](CNC(=O)c2ccccc2)c2ccc3c(c2)OCO3)[C@H](CO[Si](C)(C)C(C)(C)C)O1
[1]
  Activity: inactive

## COCO[C@H]([C@@H]1OC(C)(C)O[C@H]1CO[Si](C)(C)C(C)(C)C)[C@H](CNC(=O)c1ccccc1)c1ccc2c(c1)OCO2
[1]
  Activity: inactive
[2]
  Ki: 0.03 µM

## COCO[C@@H]([C@@H]1OC(C)(C)O[C@H]1COS(=O)(=O)c1ccc(C)cc1)[C@@H](CNC(=O)c1ccccc1)c1ccc2c(c1)OCO2
[1]
  Activity: inactive

## COCO[C@H]([C@@H]1OC(C)(C)O[C@H]1COS(=O)(=O)c1ccc(C)cc1)[C@H](CNC(=O)c1ccccc1)c1ccc2c(c1)OCO2
[1]
  Activity: inactive
[2]
  Ki: 0.07 µM

## COCO[C@H]([C@@H]1OC(C)(C)O[C@H]1CO[Si](C)(C)C(C)(C)C)[C@H](CO)c1ccc2c(c1)OCO2
[3]
  Ki: Not Active

## CC(C)OC(=O)[C@H](c1ccc2c(c1)OCO2)[C@H](O)[C@@H]1OC(C)(C)O[C@H]1CO[Si](C)(C)C(C)(C)C
[3]
  Ki: Not Active

## COCO[C@H]([C@@H]1OC(C)(C)O[C@H]1CO[Si](C)(C)C(C)(C)C)[C@H](CN=[N+]=[N-])c1ccc2c(c1)OCO2
[1]
  Activity: inactive
[3]
  Ki: Not Active

## COCO[C@H]([C@@H]1OC(C)(C)O[C@H]1CO)[C@H](CNC(=O)c1ccccc1)c1ccc2c(c1)OCO2
[1]
  Activity: inactive
[2]
  Ki: 1.78 µM

## COCO[C@@H]([C@@H]1OC(C)(C)O[C@H]1CO[Si](C)(C)C(C)(C)C)[C@@H](CNC(=O)c1ccccc1)c1ccc2c(c1)OCO2
[1]
  Activity: inactive

## O=C(NC[C@H](c1ccc2c(c1)OCO2)[C@H](O)[C@H](O)[C@@H](O)CO)c1ccccc1
[1]
  Activity: inactive

## CC1(C)O[C@@H]([C@H](O)[C@@H](CNC(=O)c2ccccc2)c2ccc3c(c2)OCO3)[C@H](CO)O1
[1]
  Activity: inactive

## COCO[C@@H]([C@@H]1OC(C)(C)O[C@H]1COC(C)=O)[C@@H](CNC(=O)c1ccccc1)c1ccc2c(c1)OCO2
[1]
  Activity: inactive

## COCO[C@H]([C@@H]1OC(C)(C)O[C@H]1CO[Si](C)(C)C(C)(C)C)[C@H](CNC(=O)OC(C)(C)C)c1ccc2c(c1)OCO2
[1]
  Activity: inactive
[2]
  Ki: 0.24 µM

## COCO[C@@H]([C@@H]1OC(C)(C)O[C@H]1CO[Si](c1ccccc1)(c1ccccc1)C(C)(C)C)[C@@H](CNC(=O)c1ccccc1)c1ccc2c(c1)OCO2
[1]
  Activity: inactive
